According to patent US4952605A (priority 1988, dated 1990):

Experiments:
[1] = tested on: PMA-induced ear edema (inflammation) in mice; assay: Mouse ear anti-inflammatory assay (PMA-induced edema); assay type: in vivo; details: for relative increase in ear weight: statistically significant difference
Method: Test compound and phorbol myristate acetate (PMA) are topically applied simultaneously to the pinnae of the left ears of mice. PMA alone is applied to the right ear. Three hours and 20 minutes after application, the mice are sacrificed, left and right ears removed, and standard sized bores taken. Edema (inflammation) is measured as the difference in weight between left and right ears (C. G. Van Arman, Clin Pharmacol Ther (1974) 16:900-904).
The results of separate, similar experiments are set forth below (*=statistically significant difference).
In another separate experiment, the effect of dehydro-seco-manoalide was determined (PMA=15 μg/ear).
In separate, similar experiments, where […] was at 1.5 ug/ear, luffariellin A and B (50 ug/ear) gave statistically significant differences in relative increase in ear weight (0.308±0.065 and 0.262±0.053, respectively) as compared to PNA alone (0.618± 0.113); as did 50 ug luffariellolide (0.221±0.068) as compared to PMA alone (0.929±0.200).

[2] = molecular target: bee venom PLA2 (Apis mellifera, UniProt P00630); assay: biochemical; details: pH 7.4
Sequence of bee venom PLA2 (P00630 34-167 limits assumed): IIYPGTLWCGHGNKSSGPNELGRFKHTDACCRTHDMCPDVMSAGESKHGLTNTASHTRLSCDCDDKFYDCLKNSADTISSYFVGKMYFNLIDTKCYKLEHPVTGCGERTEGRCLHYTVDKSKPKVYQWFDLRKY

[3] = tested on: Chinese hamster ovary K1 cells; assay: Effect on CHO cell growth; assay type: cell-based; details: Cricetulus griseus
Method: Chinese hamster ovary K1 cells are maintained in Dulbecco's Modified Eagle's Medium at 36° C. with 95% air and 5% CO2. Cells are transferred into 35 mm culture dishes, allowed 24 hours to adhere, then exposed to medium containing drug for the duration of the experiment. The number of adhered cells is counted at 24, 48, and 72 hours after initial exposure to drug.

[4] = molecular target: bee venom phospholipase A2 (PLA2) (Apis mellifera, UniProt P00630); assay: biochemical; details: for inhibition at 0.75 µM: pH 7.4, read-out: Percent Inhibition of PLA2; for inhibition at 0.25 µM / inhibition at 0.5 µM / inhibition at 2 µM / inhibition at 4 µM: pH 7.4, read-out: Percent Inhibition of PLA2; for inhibition at 0.5 µM: 0.50 uM
Sequence of bee venom phospholipase A2 (PLA2) (P00630 34-167 limits assumed): as above

[5] = dose 25.0 ug/ear topical, PMA 1.5 ug/ear, untreated 9.3 mg, PMA alone 23 mg, *=statistically significant
[6] = dose 50.0 ug/ear topical, PMA 1.5 ug/ear, untreated 9.3 mg, PMA alone 23 mg, *=statistically significant
[7] = 50 ug/ear, PNA [sic] 1.5 ug/ear, PNA alone 0.618±0.113

CC(=CCCC1=CCC(C2=CC(=O)OC2O)OC1=O)CCC1=C(C)CCCC1(C)C (stereo not shown) [Manoalide delta Lactone, manoalide delta-lactone]
Average Ear Weight [1, 5]: 16.28 mg/ear
Average Ear Weight [1, 6]: 14.87 mg/ear

C=C(C)C1(CCC(C)=CCCC(C=O)=CCC(O)C2=CC(=O)OC2O)CCCC1C (stereo not shown) [luffariellin B]
relative increase in ear weight [1, 7]: 0.262±0.053

CC(=CCCC1=CC(=O)OC1O)CCC=C(C)CCC1=C(C)CCCC1(C)C (stereo not shown) [luffariellolide, 3-(4,8-dimethyl-10-(2,6,6-trimethylcyclohexenyl)-deca,7-dienyl)-4-hydroxybutenolide]
relative increase in ear weight ([1]; 50 ug, PMA alone 0.929±0.200): 0.221±0.068
inhibition at 0.25 µM ([2]; 0.25 uM): 59%
inhibition at 0.5 µM ([2]; 0.5 uM): 59.7%
inhibition at 1 µM ([2]; 1.0 uM): 62.6%
inhibition at 42 µM ([3]; 24 hours): 63%
inhibition at 42 µM ([3]; 48 hours): 74%
inhibition at 42 µM ([3]; 72 hours): 71%

CC(=CCCC1=CCC(C2=CC(=O)OC2O)OC1O)CCC1=C(C)CCCC1(C)C (stereo not shown) [Manoalide, reference compound]
Average Ear Weight ([1]; dose 7.5 ug/ear topical, PMA 1.5 ug/ear, untreated 9.3 mg, PMA alone 23 mg, *=statistically significant): 20.45 mg/ear
Average Ear Weight ([1]; dose 10.0 ug/ear topical, PMA 1.5 ug/ear, untreated 9.3 mg, PMA alone 23 mg, *=statistically significant): 19.75 mg/ear
Average Ear Weight ([1]; dose 20.0 ug/ear topical, PMA 1.5 ug/ear, untreated 9.3 mg, PMA alone 23 mg, *=statistically significant): 17.00 mg/ear
Average Ear Weight ([1]; dose 40.0 ug/ear topical, PMA 1.5 ug/ear, untreated 9.3 mg, PMA alone 23 mg, *=statistically significant): 16.80 mg/ear
Average Ear Weight ([1]; dose 80.0 ug/ear topical, PMA 1.5 ug/ear, untreated 9.3 mg, PMA alone 23 mg, *=statistically significant): 12.90 mg/ear
Average Ear Weight ([1]; dose 160.0 ug/ear topical, PMA 1.5 ug/ear, untreated 9.3 mg, PMA alone 23 mg, *=statistically significant): 12.60 mg/ear
Average Ear Weight ([1]; dose 320.0 ug/ear topical, PMA 1.5 ug/ear, untreated 9.3 mg, PMA alone 23 mg, *=statistically significant): 11.20 mg/ear
inhibition at 0.75 µM [4]: 73.5%
inhibition at 0.25 µM [4]: 20.7%
inhibition at 0.5 µM [4]: 48%
inhibition at 2 µM [4]: 92.8%
inhibition at 4 µM [4]: 94.5%

CC(=CCCC(C=O)=CC=CC1=CC(=O)OC1O)CCC1=C(C)CCCC1(C)C (stereo not shown) [Dehydro-seco-manoalide]
relative potency of dehydro-seco-manoalide to manoalide ([1]; from dose/response data, relative to manoalide): 1.32
Average Ear Weight ([1]; separate experiment, dose 50 ug/ear, PMA=15 μg/ear, no agent 24.60 mg/ear): 14.30 mg/ear
inhibition at 0.75 µM [4]: 51.3%
inhibition at 0.25 µM [4]: 30.3%
inhibition at 0.5 µM [4]: 61.8%
inhibition at 2 µM [4]: 72.4%
inhibition at 4 µM [4]: 87.3%

CC(=CCCC(=CCC(O)C1=CC(=O)OC1)CO)CCC1=C(C)CCCC1(C)C (stereo not shown) [Manoalide Diol, 3,7-Bis(hydroxymethyl)-4-hydroxy-11-methyl-13-(2,6,6-trimethylcyclohexenyl)-2,6,10-tridecatrienoic acid gamma-lactone]
Average Ear Weight [1, 5]: 14.54 mg/ear
Average Ear Weight [1, 6]: 13.17 mg/ear

C=C(C)C1(CCC(C)=CCCC2=CCC(C3=CC(=O)OC3O)OC2O)CCCC1C (stereo not shown) [luffariellin A]
relative increase in ear weight [1, 7]: 0.308±0.065

CC(=O)OC1OC(=O)C=C1C1CC=C(CCC=C(C)CCC2=C(C)CCCC2(C)C)C(=O)O1 (stereo not shown) [Manoalide delta Lactone Acetate, manoalide delta-lactone acetate]
Average Ear Weight [1, 5]: 16.64 mg/ear
Average Ear Weight [1, 6]: 13.34 mg/ear
